Reference: PubChem BioAssay AID248 (DTP/NCI, 2004)
“And” between values parts separate entries of the source, which are not always exact repeats. Equal entries are not always repeated. Toxic doses and inconclusive results are not listed. No stated cut-off is given here; in the data, active means T/C of 150% or more; inactive means T/C below 125%.

Tested on: L1210 leukemia ip in BDF1 mice, survival T/C
Experiment: NCI In Vivo Anticancer Drug Screen. Data for tumor model L1210 Leukemia (intraperitoneal) in B6D2F1 (BDF1) mice
Conditions: endpoint: mean survival time, higher = longer survival
In short: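 Ratio derived from survival: compound-dosed mice over vehicle-dosed mice, all bearing a transplantable tumor.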

[1] = dose: 100.0 mg/kg/injection, schedule: Q04DX002 (ip), vehicle: saline with Tween-80
[2] = dose: 200.0 mg/kg/injection, schedule: Q04DX002 (ip), vehicle: saline with Tween-80
[3] = dose: 400.0 mg/kg/injection, schedule: Q04DX002 (ip), vehicle: saline with Tween-80
[4] = dose: 100.0 mg/kg/injection, schedule: Q01DX001 (ip), vehicle: saline with Tween-80
[5] = dose: 200.0 mg/kg/injection, schedule: Q01DX001 (ip), vehicle: saline with Tween-80
[6] = dose: 400.0 mg/kg/injection, schedule: Q01DX001 (ip), vehicle: saline with Tween-80
[7] = dose: 100.0 mg/kg/injection, schedule: Q04DX003 (ip), vehicle: Klucel (hydroxypropylcellulose) (HPC)
[8] = dose: 200.0 mg/kg/injection, schedule: Q04DX003 (ip), vehicle: Klucel (hydroxypropylcellulose) (HPC)
[9] = dose: 400.0 mg/kg/injection, schedule: Q04DX003 (ip), vehicle: Klucel (hydroxypropylcellulose) (HPC)
[10] = dose: 100.0 mg/kg/injection, schedule: Q01DX009 (ip), vehicle: saline with Tween-80
[11] = dose: 100.0 mg/kg/injection, schedule: Q04DX003 (ip), vehicle: saline with Tween-80
[12] = dose: 200.0 mg/kg/injection, schedule: Q01DX009 (ip), vehicle: saline with Tween-80
[13] = dose: 200.0 mg/kg/injection, schedule: Q04DX003 (ip), vehicle: saline with Tween-80
[14] = dose: 400.0 mg/kg/injection, schedule: Q01DX009 (ip), vehicle: saline with Tween-80
[15] = dose: 400.0 mg/kg/injection, schedule: Q04DX003 (ip), vehicle: saline with Tween-80
[16] = dose: 100.0 mg/kg/injection, schedule: Q01DX009 (ip), vehicle: saline
[17] = dose: 25.0 mg/kg/injection, schedule: Q01DX009 (ip), vehicle: saline with Tween-80
[18] = dose: 50.0 mg/kg/injection, schedule: Q01DX009 (ip), vehicle: saline with Tween-80

Measured: T/C

C1=Nc2ccccc2/C1=C/c1cccs1
inactive: dose: 100.0 mg/kg/injection, schedule: Q01DX001 (ip), vehicle: carboxymethylcellulose (CMC) 97 % of control | dose: 100.0 mg/kg/injection, schedule: Q01DX009 (ip), vehicle: carboxymethylcellulose (CMC) 96 % of control and 108 % of control | dose: 100.0 mg/kg/injection, schedule: Q04DX002 (ip), vehicle: carboxymethylcellulose (CMC) 100 % of control and 102 % of control | dose: 100.0 mg/kg/injection, schedule: Q04DX003 (ip), vehicle: carboxymethylcellulose (CMC) 95 % of control | dose: 200.0 mg/kg/injection, schedule: Q01DX001 (ip), vehicle: carboxymethylcellulose (CMC) 98 % of control | dose: 200.0 mg/kg/injection, schedule: Q01DX009 (ip), vehicle: carboxymethylcellulose (CMC) 96 % of control and 105 % of control | dose: 200.0 mg/kg/injection, schedule: Q04DX002 (ip), vehicle: carboxymethylcellulose (CMC) 104 % of control and 110 % of control | dose: 200.0 mg/kg/injection, schedule: Q04DX003 (ip), vehicle: carboxymethylcellulose (CMC) 89 % of control | dose: 400.0 mg/kg/injection, schedule: Q01DX001 (ip), vehicle: carboxymethylcellulose (CMC) 93 % of control | dose: 400.0 mg/kg/injection, schedule: Q01DX009 (ip), vehicle: carboxymethylcellulose (CMC) 89 % of control and 91 % of control | dose: 400.0 mg/kg/injection, schedule: Q04DX002 (ip), vehicle: carboxymethylcellulose (CMC) 103 % of control and 104 % of control

CCP(=O)(CC(=O)O)c1ccccc1 (centres undefined)
inactive: [1] 109 % of control | [2] 103 % of control | [3] 103 % of control

Cc1cc(C(=O)C(=O)O)c(CN2C(=O)c3ccccc3C2=O)c(=O)n1C
inactive: [4] 97 % of control | [5] 107 % of control | [6] 97 % of control

COC(=O)C1=C2c3ccccc3NC(=O)N2NC1C(=O)OC (centres undefined)
inactive: dose: 50.0 mg/kg/injection, schedule: Q04DX002 (ip), vehicle: saline 108 % of control | dose: 100.0 mg/kg/injection, schedule: Q04DX002 (ip), vehicle: saline 90 % of control | dose: 200.0 mg/kg/injection, schedule: Q04DX002 (ip), vehicle: saline 90 % of control

O=S(=O)(OCC1CO1)c1ccc(F)cc1 (centres undefined)
inactive: dose: 100.0 mg/kg/injection, schedule: Q01DX007 (ip), vehicle: Klucel (hydroxypropylcellulose) (HPC) 103 % of control | [7] 95 % of control | dose: 200.0 mg/kg/injection, schedule: Q01DX007 (ip), vehicle: Klucel (hydroxypropylcellulose) (HPC) 114 % of control | [8] 104 % of control | dose: 400.0 mg/kg/injection, schedule: Q01DX007 (ip), vehicle: Klucel (hydroxypropylcellulose) (HPC) 103 % of control | [9] 98 % of control

CC(=O)OC1CCC2(C)C(CCC3C2CCC2(C)C3CCC2C(C)(C)O)C1 (centres undefined)
inactive: dose: 100.0 mg/kg/injection, schedule: Q04DX002 (ip), vehicle: DMSO 99 % of control | dose: 200.0 mg/kg/injection, schedule: Q04DX002 (ip), vehicle: DMSO 92 % of control | dose: 400.0 mg/kg/injection, schedule: Q04DX002 (ip), vehicle: DMSO 92 % of control

Cc1ccc(Cl)cc1NC(=O)NCc1cccnc1
inactive: [4] 93 % of control | [10] 103 % of control and 91 % of control | [1] 106 % of control and 88 % of control | [11] 107 % of control | [5] 90 % of control | [12] 104 % of control and 92 % of control | [2] 95 % of control and 89 % of control | [13] 100 % of control | [6] 90 % of control | [14] 96 % of control and 113 % of control | [3] 95 % of control and 91 % of control | [15] 103 % of control

COC(=O)c1[nH]cnc1/N=N/Nc1ccc(Cl)cc1
inactive: dose: 50.0 mg/kg/injection, schedule: Q01DX001 (ip), vehicle: other 103 % of control | dose: 100.0 mg/kg/injection, schedule: Q01DX001 (ip), vehicle: other 105 % of control | dose: 200.0 mg/kg/injection, schedule: Q01DX001 (ip), vehicle: other 105 % of control | dose: 400.0 mg/kg/injection, schedule: Q01DX001 (ip), vehicle: other 94 % of control

CC(=O)C1C(=O)N(C)C(=O)N(C)C1=O
inactive: dose: 75.0 mg/kg/injection, schedule: Q01DX001 (ip), vehicle: carboxymethylcellulose (CMC) 97 % of control | dose: 150.0 mg/kg/injection, schedule: Q01DX001 (ip), vehicle: carboxymethylcellulose (CMC) 100 % of control | dose: 300.0 mg/kg/injection, schedule: Q01DX001 (ip), vehicle: carboxymethylcellulose (CMC) 103 % of control

ClC(Cl)(Cl)C1OCCOCCO1
inactive: dose: 100.0 mg/kg/injection, schedule: Q04DX002 (ip), vehicle: Klucel (hydroxypropylcellulose) (HPC) 93 % of control | dose: 200.0 mg/kg/injection, schedule: Q04DX002 (ip), vehicle: Klucel (hydroxypropylcellulose) (HPC) 97 % of control | dose: 400.0 mg/kg/injection, schedule: Q04DX002 (ip), vehicle: Klucel (hydroxypropylcellulose) (HPC) 107 % of control

CC(C)(C)N1C(=O)N(C(C)(C)C)C1=O
inactive: [10] 91 % of control | [7] 113 % of control | [12] 94 % of control | [8] 102 % of control | [14] 93 % of control | [9] 109 % of control

CCCCCCCCCC[P+](=O)CCCCCCCCCC
inactive: dose: 25.0 mg/kg/injection, schedule: Q04DX003 (ip), vehicle: saline with Tween-80 92 % of control | dose: 50.0 mg/kg/injection, schedule: Q04DX003 (ip), vehicle: saline with Tween-80 89 % of control | [13] 89 % of control | [15] 89 % of control

CC(=O)N(C)c1cc2c3c(c1)CCCN3CCC2
inactive: dose: 50.0 mg/kg/injection, schedule: Q01DX009 (ip), vehicle: Klucel (hydroxypropylcellulose) (HPC) 104 % of control | dose: 100.0 mg/kg/injection, schedule: Q01DX009 (ip), vehicle: Klucel (hydroxypropylcellulose) (HPC) 98 % of control

CNc1ccccc1C(N)=S
inactive: dose: 50.0 mg/kg/injection, schedule: Q01DX009 (ip), vehicle: saline 111 % of control | dose: 50.0 mg/kg/injection, schedule: Q04DX003 (ip), vehicle: saline 106 % of control | [16] 97 % of control | dose: 100.0 mg/kg/injection, schedule: Q04DX003 (ip), vehicle: saline 105 % of control | dose: 200.0 mg/kg/injection, schedule: Q01DX009 (ip), vehicle: saline 101 % of control | dose: 200.0 mg/kg/injection, schedule: Q04DX003 (ip), vehicle: saline 105 % of control

O=S1(=O)C=CC(Br)C1 (centres undefined)
inactive: [4] 100 % of control | [5] 101 % of control

COC(=O)C1C=C2c3cccc4[nH]cc(c34)CC2N(C)C1 (centres undefined)
inactive: [16] 105 % of control

O=c1[nH]c(=S)c2c3c(sc2[nH]1)CCCC3
inactive: dose: 100.0 mg/kg/injection, schedule: Q04DX003 (ip), vehicle: saline sonified 95 % of control | dose: 200.0 mg/kg/injection, schedule: Q04DX003 (ip), vehicle: saline sonified 97 % of control | dose: 400.0 mg/kg/injection, schedule: Q04DX003 (ip), vehicle: saline sonified 93 % of control

CCCCn1c(=O)cc(C(=O)O)c2ccccc21
inactive: [11] 101 % of control | [13] 101 % of control | [15] 95 % of control

CCOC(=O)c1ccc(NCC#N)cc1
inactive: [17] 92 % of control | [18] 95 % of control | [4] 97 % of control | [10] 94 % of control | [5] 92 % of control | [12] 91 % of control | [6] 98 % of control | [14] 102 % of control

COc1cc(CCN)ccc1OCc1ccccc1
inactive: dose: 25.0 mg/kg/injection, schedule: Q04DX003 (ip), vehicle: Klucel (hydroxypropylcellulose) (HPC) 97 % of control | dose: 50.0 mg/kg/injection, schedule: Q04DX003 (ip), vehicle: Klucel (hydroxypropylcellulose) (HPC) 101 % of control | dose: 100.0 mg/kg/injection, schedule: Q01DX001 (ip), vehicle: Klucel (hydroxypropylcellulose) (HPC) 96 % of control | [7] 104 % of control and 105 % of control | dose: 200.0 mg/kg/injection, schedule: Q01DX001 (ip), vehicle: Klucel (hydroxypropylcellulose) (HPC) 94 % of control

CC(C)(C)OC(=O)N1CCCC1C(=O)Oc1ccc([N+](=O)[O-])cc1 (centres undefined)
inactive: [17] 102 % of control | [18] 88 % of control | [10] 93 % of control
